Reference: ChEMBL document CHEMBL4251615, “Discovery of anilino-furo[2,3-d]pyrimidine derivatives as dual inhibitors of EGFR/HER2 tyrosine kinase and their anticancer activity” (Eur J Med Chem, 2018)

tested on: MDA-MB-435; assay: Growth inhibition of human MDA-MB-435 cells assessed as cell growth at 10 uM incubated for 48 hrs by sulforhodamine B assay relative to control; assay type: functional; conditions: MDA-MB-435, 48 h, read-out: Activity

Row | SMILES | growth at 10 µM [%]
1 | CCOC(=O)c1c(C)oc2ncnc(Nc3ccc(OCc4ccc(Cl)c(Cl)c4)cc3)c12 | 111

tested on: NCI-H522; assay: Growth inhibition of human NCI-H522 cells assessed as cell growth at 10 uM incubated for 48 hrs by sulforhodamine B assay relative to control; assay type: functional; conditions: NCI-H522, 48 h, read-out: Activity

Row | SMILES | growth at 10 µM [%]
2 | CCOC(=O)c1c(C)oc2ncnc(Nc3ccc(OCc4ccc(Cl)c(Cl)c4)cc3)c12 | 91

tested on: 786-0; assay: Growth inhibition of human 786-0 cells assessed as cell growth at 10 uM incubated for 48 hrs by sulforhodamine B assay relative to control; assay type: functional; conditions: 786-0, 48 h, read-out: Activity

Row | SMILES | growth at 10 µM [%]
3 | CCOC(=O)c1c(C)oc2ncnc(Nc3ccc(OCc4ccc(Cl)c(Cl)c4)cc3)c12 | 94.3

tested on: MCF7; assay: Growth inhibition of human MCF7 cells assessed as cell growth at 10 uM incubated for 48 hrs by sulforhodamine B assay relative to control; assay type: functional; conditions: MCF7, 48 h, read-out: Activity

Row | SMILES | growth at 10 µM [%]
4 | CCOC(=O)c1c(C)oc2ncnc(Nc3ccc(OCc4ccc(Cl)c(Cl)c4)cc3)c12 | 106

tested on: MOLT-4; assay: Growth inhibition of human MOLT4 cells assessed as cell growth at 10 uM incubated for 48 hrs by sulforhodamine B assay relative to control; assay type: functional; conditions: MOLT-4, 48 h, read-out: Activity

Row | SMILES | growth at 10 µM [%]
5 | CCOC(=O)c1c(C)oc2ncnc(Nc3ccc(OCc4ccc(Cl)c(Cl)c4)cc3)c12 | 105

tested on: Malme-3M; assay: Growth inhibition of human MALME-3M cells assessed as cell growth at 10 uM incubated for 48 hrs by sulforhodamine B assay relative to control; assay type: functional; conditions: read-out: Activity

Row | SMILES | growth at 10 µM [%]
6 | CCOC(=O)c1c(C)oc2ncnc(Nc3ccc(OCc4ccc(Cl)c(Cl)c4)cc3)c12 | 131

tested on: HCC 2998; assay: Growth inhibition of human HCC2998 cells assessed as cell growth at 10 uM incubated for 48 hrs by sulforhodamine B assay relative to control; assay type: functional; conditions: HCC 2998, 48 h, read-out: Activity

Row | SMILES | growth at 10 µM [%]
7 | CCOC(=O)c1c(C)oc2ncnc(Nc3ccc(OCc4ccc(Cl)c(Cl)c4)cc3)c12 | 109

tested on: SK-MEL-2; assay: Growth inhibition of human SK-MEL-2 cells assessed as cell growth at 10 uM incubated for 48 hrs by sulforhodamine B assay relative to control; assay type: functional; conditions: SK-MEL-2, 48 h, read-out: Activity

Row | SMILES | growth at 10 µM [%]
8 | CCOC(=O)c1c(C)oc2ncnc(Nc3ccc(OCc4ccc(Cl)c(Cl)c4)cc3)c12 | 103

tested on: HOP-92; assay: Growth inhibition of human HOP92 cells assessed as cell growth at 10 uM incubated for 48 hrs by sulforhodamine B assay relative to control; assay type: functional; conditions: HOP-92, 48 h, read-out: Activity

Row | SMILES | growth at 10 µM [%]
9 | CCOC(=O)c1c(C)oc2ncnc(Nc3ccc(OCc4ccc(Cl)c(Cl)c4)cc3)c12 | 116

tested on: BT-549; assay: Growth inhibition of human BT549 cells assessed as cell growth at 10 uM incubated for 48 hrs by sulforhodamine B assay relative to control; assay type: functional; conditions: BT-549, 48 h, read-out: Activity

Row | SMILES | growth at 10 µM [%]
10 | CCOC(=O)c1c(C)oc2ncnc(Nc3ccc(OCc4ccc(Cl)c(Cl)c4)cc3)c12 | 94.9

tested on: HT-29; assay: Growth inhibition of human HT-29 cells assessed as cell growth at 10 uM incubated for 48 hrs by sulforhodamine B assay relative to control; assay type: functional; conditions: HT-29, 48 h, read-out: Activity

Row | SMILES | growth at 10 µM [%]
11 | CCOC(=O)c1c(C)oc2ncnc(Nc3ccc(OCc4ccc(Cl)c(Cl)c4)cc3)c12 | 99.7

tested on: HL-60(TB); assay: Growth inhibition of human HL-60(TB) cells assessed as cell growth at 10 uM incubated for 48 hrs by sulforhodamine B assay relative to control; assay type: functional; conditions: HL-60, 48 h, read-out: Activity

Row | SMILES | growth at 10 µM [%]
12 | CCOC(=O)c1c(C)oc2ncnc(Nc3ccc(OCc4ccc(Cl)c(Cl)c4)cc3)c12 | 96.6

tested on: MDA-MB-468; assay: Growth inhibition of human MDA-MB-468 cells assessed as cell growth at 10 uM incubated for 48 hrs by sulforhodamine B assay relative to control; assay type: functional; conditions: MDA-MB-468, 48 h, read-out: Activity

Row | SMILES | growth at 10 µM [%]
13 | CCOC(=O)c1c(C)oc2ncnc(Nc3ccc(OCc4ccc(Cl)c(Cl)c4)cc3)c12 | 96.5

tested on: HCT-116; assay: Growth inhibition of human HCT116 cells assessed as cell growth at 10 uM incubated for 48 hrs by sulforhodamine B assay relative to control; assay type: functional; conditions: HCT-116, 48 h, read-out: Activity

Row | SMILES | growth at 10 µM [%]
14 | CCOC(=O)c1c(C)oc2ncnc(Nc3ccc(OCc4ccc(Cl)c(Cl)c4)cc3)c12 | 94.5

tested on: OVCAR-4; assay: Growth inhibition of human OVCAR4 cells assessed as cell growth at 10 uM incubated for 48 hrs by sulforhodamine B assay relative to control; assay type: functional; conditions: OVCAR-4, 48 h, read-out: Activity

Row | SMILES | growth at 10 µM [%]
15 | CCOC(=O)c1c(C)oc2ncnc(Nc3ccc(OCc4ccc(Cl)c(Cl)c4)cc3)c12 | 121

tested on: ACHN; assay: Growth inhibition of human ACHN cells assessed as cell growth at 10 uM incubated for 48 hrs by sulforhodamine B assay relative to control; assay type: functional; conditions: read-out: Activity

Row | SMILES | growth at 10 µM [%]
16 | CCOC(=O)c1c(C)oc2ncnc(Nc3ccc(OCc4ccc(Cl)c(Cl)c4)cc3)c12 | 102

tested on: SNB-19; assay: Growth inhibition of human SNB19 cells assessed as cell growth at 10 uM incubated for 48 hrs by sulforhodamine B assay relative to control; assay type: functional; conditions: SNB-19, 48 h, read-out: Activity

Row | SMILES | growth at 10 µM [%]
17 | CCOC(=O)c1c(C)oc2ncnc(Nc3ccc(OCc4ccc(Cl)c(Cl)c4)cc3)c12 | 103

tested on: NCI-H322M; assay: Growth inhibition of human NCI-H322M cells assessed as cell growth at 10 uM incubated for 48 hrs by sulforhodamine B assay relative to control; assay type: functional; conditions: read-out: Activity

Row | SMILES | growth at 10 µM [%]
18 | CCOC(=O)c1c(C)oc2ncnc(Nc3ccc(OCc4ccc(Cl)c(Cl)c4)cc3)c12 | 97.9

tested on: SF-268; assay: Growth inhibition of human SF268 cells assessed as cell growth at 10 uM incubated for 48 hrs by sulforhodamine B assay relative to control; assay type: functional; conditions: SF-268, 48 h, read-out: Activity

Row | SMILES | growth at 10 µM [%]
19 | CCOC(=O)c1c(C)oc2ncnc(Nc3ccc(OCc4ccc(Cl)c(Cl)c4)cc3)c12 | 104

tested on: NCI-H23; assay: Growth inhibition of human NCI-H23 cells assessed as cell growth at 10 uM incubated for 48 hrs by sulforhodamine B assay relative to control; assay type: functional; conditions: NCI-H23, 48 h, read-out: Activity

Row | SMILES | growth at 10 µM [%]
20 | CCOC(=O)c1c(C)oc2ncnc(Nc3ccc(OCc4ccc(Cl)c(Cl)c4)cc3)c12 | 95.8

tested on: PC-3; assay: Growth inhibition of human PC3 cells assessed as cell growth at 10 uM incubated for 48 hrs by sulforhodamine B assay relative to control; assay type: functional; conditions: PC-3, 48 h, read-out: Activity

Row | SMILES | growth at 10 µM [%]
21 | CCOC(=O)c1c(C)oc2ncnc(Nc3ccc(OCc4ccc(Cl)c(Cl)c4)cc3)c12 | 103

tested on: TK-10; assay: Growth inhibition of human TK10 cells assessed as cell growth at 10 uM incubated for 48 hrs by sulforhodamine B assay relative to control; assay type: functional; conditions: TK-10, 48 h, read-out: Activity

Row | SMILES | growth at 10 µM [%]
22 | CCOC(=O)c1c(C)oc2ncnc(Nc3ccc(OCc4ccc(Cl)c(Cl)c4)cc3)c12 | 88.5

tested on: U-251; assay: Growth inhibition of human U251 cells assessed as cell growth at 10 uM incubated for 48 hrs by sulforhodamine B assay relative to control; assay type: functional; conditions: U-251, 48 h, read-out: Activity

Row | SMILES | growth at 10 µM [%]
23 | CCOC(=O)c1c(C)oc2ncnc(Nc3ccc(OCc4ccc(Cl)c(Cl)c4)cc3)c12 | 104

tested on: A549; assay: Growth inhibition of human A549/ATCC cells assessed as cell growth at 10 uM incubated for 48 hrs by sulforhodamine B assay relative to control; assay type: functional; conditions: A549, 48 h, read-out: Activity

Row | SMILES | growth at 10 µM [%]
24 | CCOC(=O)c1c(C)oc2ncnc(Nc3ccc(OCc4ccc(Cl)c(Cl)c4)cc3)c12 | 95.8

tested on: MDA-MB-231; assay: Growth inhibition of human MDA-MB-231 cells assessed as cell growth at 10 uM incubated for 48 hrs by sulforhodamine B assay relative to control; assay type: functional; conditions: MDA-MB-231, 48 h, read-out: Activity

Row | SMILES | growth at 10 µM [%]
25 | CCOC(=O)c1c(C)oc2ncnc(Nc3ccc(OCc4ccc(Cl)c(Cl)c4)cc3)c12 | 84.3

tested on: SW-620; assay: Growth inhibition of human SW620 cells assessed as cell growth at 10 uM incubated for 48 hrs by sulforhodamine B assay relative to control; assay type: functional; conditions: SW-620, 48 h, read-out: Activity

Row | SMILES | growth at 10 µM [%]
26 | CCOC(=O)c1c(C)oc2ncnc(Nc3ccc(OCc4ccc(Cl)c(Cl)c4)cc3)c12 | 105

tested on: SF-295; assay: Growth inhibition of human SF295 cells assessed as cell growth at 10 uM incubated for 48 hrs by sulforhodamine B assay relative to control; assay type: functional; conditions: SF-295, 48 h, read-out: Activity

Row | SMILES | growth at 10 µM [%]
27 | CCOC(=O)c1c(C)oc2ncnc(Nc3ccc(OCc4ccc(Cl)c(Cl)c4)cc3)c12 | 94.7

tested on: OVCAR-3; assay: Growth inhibition of human OVCAR3 cells assessed as cell growth at 10 uM incubated for 48 hrs by sulforhodamine B assay relative to control; assay type: functional; conditions: OVCAR-3, 48 h, read-out: Activity

Row | SMILES | growth at 10 µM [%]
28 | CCOC(=O)c1c(C)oc2ncnc(Nc3ccc(OCc4ccc(Cl)c(Cl)c4)cc3)c12 | 118

tested on: Hs-578T; assay: Growth inhibition of human Hs 578T cells assessed as cell growth at 10 uM incubated for 48 hrs by sulforhodamine B assay relative to control; assay type: functional; conditions: read-out: Activity

Row | SMILES | growth at 10 µM [%]
29 | CCOC(=O)c1c(C)oc2ncnc(Nc3ccc(OCc4ccc(Cl)c(Cl)c4)cc3)c12 | 104

tested on: RXF 393; assay: Growth inhibition of human RXF393 cells assessed as cell growth at 10 uM incubated for 48 hrs by sulforhodamine B assay relative to control; assay type: functional; conditions: RXF 393, 48 h, read-out: Activity

Row | SMILES | growth at 10 µM [%]
30 | CCOC(=O)c1c(C)oc2ncnc(Nc3ccc(OCc4ccc(Cl)c(Cl)c4)cc3)c12 | 101

tested on: SN12C; assay: Growth inhibition of human SN12C cells assessed as cell growth at 10 uM incubated for 48 hrs by sulforhodamine B assay relative to control; assay type: functional; conditions: read-out: Activity

Row | SMILES | growth at 10 µM [%]
31 | CCOC(=O)c1c(C)oc2ncnc(Nc3ccc(OCc4ccc(Cl)c(Cl)c4)cc3)c12 | 93.3

tested on: RPMI-8226; assay: Growth inhibition of human RPMI8226 cells assessed as cell growth at 10 uM incubated for 48 hrs by sulforhodamine B assay relative to control; assay type: functional; conditions: RPMI-8226, 48 h, read-out: Activity

Row | SMILES | growth at 10 µM [%]
32 | CCOC(=O)c1c(C)oc2ncnc(Nc3ccc(OCc4ccc(Cl)c(Cl)c4)cc3)c12 | 117

tested on: EKVX; assay: Growth inhibition of human EKVX cells assessed as cell growth at 10 uM incubated for 48 hrs by sulforhodamine B assay relative to control; assay type: functional; conditions: read-out: Activity

Row | SMILES | growth at 10 µM [%]
33 | CCOC(=O)c1c(C)oc2ncnc(Nc3ccc(OCc4ccc(Cl)c(Cl)c4)cc3)c12 | 102
